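These data come from cells grown in 96-well plates and exposed to compound for 48 hours at five concentrations. TGI is the concentration that stops growth completely.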
Columns and labels:
Assay in all cases: growth of human tumour cells (NCI), 48 h
786-0 renal = test system: 786-0 renal
DU-145 prostate = test system: DU-145 prostate
HOP-62 NSCLC = test system: HOP-62 NSCLC
HOP-92 NSCLC = test system: HOP-92 NSCLC
HT29 colon = test system: HT29 colon
IGROV1 ovarian = test system: IGROV1 ovarian
KM12 colon = test system: KM12 colon
LOX IMVI melanoma = test system: LOX IMVI melanoma
MDA-N = test system: MDA-N
OVCAR-3 ovarian = test system: OVCAR-3 ovarian
SF-295 CNS = test system: SF-295 CNS
SK-OV-3 ovarian = test system: SK-OV-3 ovarian
SNB-19 CNS = test system: SNB-19 CNS
SNB-75 CNS = test system: SNB-75 CNS
T-47D breast = test system: T-47D breast
TK-10 renal = test system: TK-10 renal
U251 CNS = test system: U251 CNS
UACC-257 melanoma = test system: UACC-257 melanoma
A498 renal = test system: A498 renal

Structure (SMILES) | TGI (786-0 renal) [µM] | TGI (DU-145 prostate) [µM] | TGI (HOP-62 NSCLC) [µM] | TGI (HOP-92 NSCLC) [µM] | TGI (HT29 colon) [µM] | TGI (IGROV1 ovarian) [µM] | TGI (KM12 colon) [µM] | TGI (LOX IMVI melanoma) [µM] | TGI (MDA-N) [µM] | TGI (OVCAR-3 ovarian) [µM] | TGI (SF-295 CNS) [µM] | TGI (SK-OV-3 ovarian) [µM] | TGI (SNB-19 CNS) [µM] | TGI (SNB-75 CNS) [µM] | TGI (T-47D breast) [µM] | TGI (TK-10 renal) [µM] | TGI (U251 CNS) [µM] | TGI (UACC-257 melanoma) [µM] | TGI (A498 renal) [µM]
CCOC(=O)C(NCc1cccc(C(F)(F)F)c1)(NC(=O)CC)C(F)(F)F (configuration not stated) | > 100 | > 100 | > 100 | > 100 | > 100 | > 100 | > 100 | > 100 | > 100 | > 100 | > 100 | > 100 | > 100 | > 100 | > 100 | > 100 | > 100 | > 100 | 
COC(=O)c1c2c(cc3c1CC1(Cc4cc5c(cc4C1=O)CCC5)C3)CCC2 (configuration not stated) | > 100 | > 100 | > 100 |  | > 100 | > 100 | > 100 | > 100 | > 100 | > 100 | > 100 | 93.8 | > 100 | > 100 | > 100 | > 100 | > 100 | > 100 | > 100
O=c1[nH]c(-n2[nH]c3c(c2=O)CCCC3)nc(O)c1-c1ccccc1 | > 100 | > 100 |  | > 100 | > 100 | > 100 | > 100 |  | > 100 |  | > 100 | > 100 | > 100 |  | > 100 | > 100 | > 100 | > 100 | > 100
Nc1nc(Nc2ccccc2)sc1C(=O)c1cccs1 | 28.6 | 30.8 | > 65.5 | 71 | 18.2 | 36.3 | 14.9 | 27.3 | 46.4 | > 28.2 | 66.6 | 90.2 | 46.5 |  | > 59.3 | 46.8 | 40.8 | 32.5 | 38.8
C#CCCCOc1ncccn1 | > 100 | > 100 | > 100 | > 100 | > 100 | > 100 | > 100 | > 100 | > 100 | > 100 | > 100 | > 100 | > 100 |  | > 100 | > 100 | > 100 | > 100 | > 100
O=c1[nH]c(=O)n(C2CC(O)C(CO)O2)cc1OCC1CCCCC1 (configuration not stated) | > 100 | > 100 | > 100 |  | > 100 | > 100 | > 100 | > 100 | > 100 | > 100 | > 100 | > 100 | > 100 | > 100 | > 100 | > 100 | > 100 | > 100 | 
Cc1cc(-c2nc3ccc(F)cc3s2)ccc1N | > 100 | > 100 | > 100 | > 100 | > 100 | > 100 | > 100 | > 100 | > 100 | > 100 | > 100 |  | > 100 | > 100 |  | > 100 | > 100 | > 100 | > 100
CC(C)=CCN1c2ccc(Cl)cc2NC(=O)CC1C (configuration not stated) | 34.8 | > 100 | 61.7 | 37.8 | 37.2 | 62.4 | 68.6 | 33.2 | 51.7 | 36 | > 100 | > 100 | > 100 |  | > 100 | 87.7 | 76.6 | 47.3 | 49
CN(C)Cc1cc(C=O)cc(CN(C)C)c1O | > 100 | > 100 | > 100 | > 100 | > 100 | > 100 | > 100 | > 100 | > 100 | > 100 | > 100 |  | > 100 | > 100 |  | > 100 | > 100 | > 100 | > 100
COC1CC(NC(=O)C(F)(F)F)C(OC(C)=O)C(C)O1 (configuration not stated) | > 100 | > 100 | > 100 | > 100 | > 100 | > 100 | > 100 | > 100 | > 100 | > 100 | > 100 | > 100 | > 100 | > 100 | > 100 | > 100 | > 100 | > 100 | 
CC(=O)O[C@H]1CCC2[C@@H]3CCC4Cc5nc6c(nc5C[C@]4(C)C3CC[C@@]21C)CC1CC[C@@H]2C(CC[C@@]3(C)C2CC[C@@H]3C(C)CCCC(C)C)[C@@]1(C)C6 (some centres not stated) | > 100 | > 100 | > 100 | > 100 | > 100 | > 100 | > 100 | > 100 | > 100 | > 100 | > 100 | > 100 | > 100 | > 100 | > 100 | > 100 | > 100 | > 100 | 
Cc1ccc(C)c2c1CC(Cc1ccccc1C(=O)O)C2=O (configuration not stated) | > 100 | > 100 | > 100 | > 100 | > 100 | > 100 | > 100 | > 100 | > 100 | > 100 | > 100 | > 100 | > 100 | > 100 | > 100 | > 100 | > 100 | > 100 | 
O[C@@H]1C[C@H]2N3CC[C@@]2(c2cc4c(cc2C3)OCO4)[C@H]2O[C@@H]12 | > 100 | > 100 | > 100 | > 100 | > 100 | > 100 | > 100 | > 100 | > 100 | > 100 | > 100 | > 100 | > 100 | > 100 |  | > 100 | > 100 | > 100 | > 100
CC(=O)OCC(OC(C)=O)C(OC(C)=O)C(OC(C)=O)C(C=NN(C(C)=O)S(=O)(=O)c1ccc(/C=C2\NC(=O)NC2=O)cc1)OC(C)=O (configuration not stated) | > 100 | > 100 | > 100 |  | > 100 | > 100 | > 100 | > 100 | > 100 | > 100 | > 100 | > 100 | > 100 | > 100 | > 100 | > 100 | > 100 | > 100 | > 100
CN1CC[C@]2(c3cccc(O)c3)CC(=O)/C(=C/c3ccc(Cl)c(Cl)c3)[C@@H]1C2 | 2.23 | 3.01 |  | 2.57 | 2.22 | 3.72 | 2.06 | 0.327 | 1.83 |  | 2.86 |  | 3.48 | 1.55 |  | 3.48 | 2.14 | 2.93 | 3.69
Clc1cc(Br)c2c3c(c(Br)cc(Cl)c13)C(Br)=C2Br | 47.7 | 90.9 | > 100 |  | 61.5 | 36.5 | > 100 | 32.2 | > 100 | > 100 | > 100 | > 100 | > 100 | 71.7 |  | 46.6 | > 100 | > 100 | > 100
CC(C)SC(NC(=O)C1C(C)(C)CCC1(C)C)C(=O)O (configuration not stated) | > 100 | > 100 | > 100 | > 100 |  | > 100 |  | > 100 | > 100 |  |  | > 100 | > 100 | > 100 |  | > 100 | > 100 |  | > 100
CCOC(=O)c1ccc(Nc2nc3ccccc3nc2C(=O)OCC)cc1 | > 100 | > 100 | > 100 | > 100 | > 100 | > 100 | > 100 |  | > 100 | > 100 |  | > 100 | > 100 | > 100 | > 100 | > 100 | > 100 |  | 
O=C1C(=Cc2cccc(O)c2)N=C(c2ccccc2)N1n1c(-c2ccccc2)nc2ccccc2c1=O | > 100 | 74.5 |  | 66 | 85 | 61.1 | 56.4 | 52.5 |  | 70.1 | 65.6 | > 100 | 72.7 |  | 91.7 | > 100 | > 100 | 81.9 | 72.4
CN(CC(=O)O)c1ncc2c(n1)-c1ccccc1OC2 | > 100 | > 100 |  | > 100 | > 100 | > 100 | > 100 | > 100 | > 100 |  | > 100 |  | > 100 | > 100 |  | > 100 | > 100 | > 100 | > 100
COc1ccc2c(ccc3c(COC(=O)NC(C)C)c(COC(=O)NC(C)C)n(C)c32)c1 | 20.8 |  | 20.9 | 27.2 | 26.5 | 26 | 25.4 | 19.6 | 24.7 | 26.8 | 46.2 | 32.5 | > 100 | 15.8 | 82.6 | 47.8 | 28.5 | 27.1 | 21
[O-][n+]1onc2c1/C(=N/O)CCC2 | > 100 | > 100 | > 100 |  | > 100 | > 100 | > 100 | > 100 | > 100 | > 100 | > 100 | > 100 | > 100 | > 100 | > 100 | > 100 |  | > 100 | > 100
Cc1ccc(-c2nc(-c3cnccn3)n(C3OC(CO)C(O)C(O)C3O)n2)cc1 (configuration not stated) | > 100 | > 100 | > 100 | > 100 | > 100 | > 100 | > 100 | > 100 | > 100 | > 100 | > 100 |  | > 100 | > 100 | > 100 | > 100 | > 100 | > 100 | 
NCCC(=O)N[C@@H](Cc1cc(O)c(O)c(SCC(NC(=O)CC[C@H](N)C(=O)O)C(=O)NCC(=O)O)c1)C(=O)O (some centres not stated) | > 50 | > 50 | > 50 | > 50 | > 50 | > 50 | > 50 |  | > 50 | > 50 | > 50 | > 50 | > 50 | > 50 |  | > 50 | > 50 | > 50 | > 50
COC(=O)/C=C(/OC)[C@H](C)[C@H](/C=C/c1csc(-c2csc(C(C)C)n2)n1)OC | > 100 | > 100 | > 100 | > 100 | > 100 | > 100 | > 100 | 5.07 |  | > 56.3 | > 100 | > 100 | > 100 | > 100 | > 100 | > 100 | > 100 | > 100 | > 100
C[Si](C)(OCCS(=O)(=O)O)OC(=C1S(=O)(=O)OCCOS1(=O)=O)c1cccc2ccccc12 | > 100 | > 100 | > 100 | > 100 | > 100 | > 100 | > 100 | > 100 | > 100 | > 100 | > 100 |  | > 100 | > 100 |  | > 100 | > 100 | > 100 | > 100
CC(C)(C)OC(=O)C1CC[C@@H](CC(=O)Oc2ccc([N+](=O)[O-])cc2)N1 (some centres not stated) | > 100 | > 100 |  | > 100 |  | > 100 | > 100 | > 100 | > 100 | > 100 | > 100 | > 100 | > 100 | > 100 |  | > 100 | > 100 | > 100 | > 100

Reference: PubChem BioAssay (NCI)
